From ChEMBL document CHEMBL1201862, “PubChem BioAssay data set” (2004)
Calls of active or inactive are those of the source.

Key:
[1] = general cell-killing toxicity readout – plate reader, dry powder samples, cytotoxicity control for PAX8 inhibitor project, dose response (AID 743021); type: functional, cell-based
Paired box protein Pax-8 = Paired box protein Pax-8 (Homo sapiens, UniProt Q06710); experiment: PAX8 transcriptional activity inhibition in RMG-I – RMG-I cells, luciferase, cherry-pick, dose response (AID 687027); type: functional, cell-based;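 note: luciferase reporter driven by Pax8 target thyroperoxidase promoter measured by SteadyGlo luminescence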
[2] = blockade of melanocortin 4 receptor signaling – cell-based, plate reader, cherry pick, counter-screen for LGR2 antagonist project, dose response (AID 743444); type: functional;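 note: transfected HEK 293 cells stimulated with alpha-MSH peptide; potency of inhibitors of the alpha-MSH evoked signal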
[3] = blockers of bursicon-stimulated LGR2 cAMP reporter – cell-based, HEK293, CRE-luciferase reporter, cherry pick, set 2, dose response (AID 743343); type: functional;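 note: transfected cells were stimulated with diluted bursicon conditioned medium after compound addition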
[4] = toxicity toward HepG2 liver cells – cell-based, plate reader, cherry-pick, antagonist series, cytotoxicity control, dose response (AID 743416); type: functional
[5] = A549 cell cytotoxicity, dose response, cytotoxicity control, plate reader, cherry-pick, antagonist series (AID 743412); type: functional, cell-based
[6] = viability loss in HEK293 cells – cell-based, plate reader, cherry-picked samples, cytotoxicity control, dose response (AID 743446); type: functional
[7] = target: T1, Methionyl-tRNA synthetase, putative (Trypanosoma brucei brucei, UniProt Q38C91); type: functional, Trypanosoma brucei brucei strain 927/4 GUTat10.1
[8] = Counterscreen for inhibitors of Trypanosoma brucei methionyl tRNA synthetase (MetRS): Luminescence-based cell-based high throughput dose response assay to identify compounds that are cytotoxic to Jurkat human T lymphocyte cells.; type: functional
[9] = target: T1, Methionyl-tRNA synthetase, putative; type: functional, Trypanosoma brucei brucei strain 927/4 GUTat10.1; remark: listed apart in the source
[10] = general mammalian cell viability loss – activator set, cherry-pick, cytotoxicity control for miR-122 modulator project, dose response (AID 720690); type: functional, cell-based;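 note: HEK293T human cells scored for general mammalian cytotoxicity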
[11] = activation of miR-122 Renilla sensor silencing – cell-based, Huh7 psiCHECK-miR122, Renilla luciferase, cherry-picked, dose response (AID 651956); type: functional;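 note: huh7 hepatoma cells stably carrying a psiCHECK-2 miR-122 sensor plasmid; renilla luciferase signal reporting endogenous miR-122 activity after 48 h compound exposure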
[12] = general mammalian cell viability loss – inhibitor set, cherry-pick, set 2, cytotoxicity control for miR-122 modulator project, dose response (AID 720697); type: functional, cell-based
[13] = T. cruzi growth inhibition in host cells, dose response, cell-based, plate reader, dry powder, set 2 (AID 652275); type: functional
[14] = viability loss in MITF-independent A375 cells – cell-based, CellTiter-Glo luminescence, dry powder, set 2, counter-screen for MITF inhibitor project, dose response (AID 624489); type: functional; conditions: A-375;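 note: actives are compounds lowering A375 viability meaning general cytotoxicity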
[15] = cytotoxicity in MITF-independent A375 cells – cell-based, CellTiter-Glo luminescence, dry powder, set 4, counter-screen for MITF inhibitor project, dose response (AID 624364); type: functional; conditions: A-375;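 note: A375 melanoma cells are MITF independent so this is a counter screen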
[16] = target: Delta-type opioid receptor (Homo sapiens, UniProt P41143); experiment: Late-stage results from the probe development effort to identify antagonists of OPRK1: fluorescence-based cell-based dose response OPRD1 counterscreen, Set 2.; type: functional
[17] = target: Kappa-type opioid receptor (Homo sapiens, UniProt P41145); experiment: Late-stage fluorescence-based cell-based dose response assay for antagonists of kappa opioid receptor 1 (OPRK1).; type: functional
Mu-type opioid receptor = Mu-type opioid receptor (Homo sapiens, UniProt P35372); experiment: Late-stage results from the probe development effort to identify antagonists of OPRK1: luminescence-based cell-based dose response OPRM1 counterscreen, Set 2.; type: functional
[18] = target: Sphingosine 1-phosphate receptor 1 (Homo sapiens, UniProt P21453); experiment: Late-stage counterscreen for antagonists of kappa opioid receptor 1 (OPRK1): fluorescence-based cell-based dose response assay to identify antagonists of Sphingosine 1-Phosphate Receptor 1 (S1P1).; type: functional
[19] = target: T2, C-C chemokine receptor type 6 (Homo sapiens, UniProt P51684); experiment: SAR analysis of small molecule antagonists of the CXCR6 receptor using a CCR6 receptor luminescent beta-arrestin counterscreen.; type: functional
T2 sequence (P51684 whole entry): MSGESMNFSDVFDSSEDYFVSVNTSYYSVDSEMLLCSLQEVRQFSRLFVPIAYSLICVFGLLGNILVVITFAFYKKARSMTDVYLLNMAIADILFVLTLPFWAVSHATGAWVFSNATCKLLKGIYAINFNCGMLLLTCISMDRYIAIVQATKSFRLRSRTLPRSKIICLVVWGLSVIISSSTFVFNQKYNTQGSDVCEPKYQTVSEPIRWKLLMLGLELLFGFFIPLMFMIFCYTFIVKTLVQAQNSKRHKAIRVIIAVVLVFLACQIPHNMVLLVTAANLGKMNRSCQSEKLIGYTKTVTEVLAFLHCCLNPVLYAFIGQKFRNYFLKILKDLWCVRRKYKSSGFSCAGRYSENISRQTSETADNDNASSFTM

[20] = target: C-X-C chemokine receptor type 4 (Homo sapiens, UniProt P61073); experiment: SAR analysis of small molecule antagonists of the CXCR6 receptor using a CXCR4 receptor luminescent beta-arrestin counterscreen.; type: functional
[21] = cervical cancer cell viability loss – HeLa, 24 h, plate reader, powder samples, set 3, cytotoxicity control, dose response (AID 651864); type: functional, cell-based
[22] = HeLa cell viability loss – 24 h, dry powder, set 2, cytotoxicity control, dose response (AID 651774); type: functional, cell-based
[23] = inhibitors of non-replicating M. tuberculosis, dose response, luciferase, dry powder (AID 651620); type: functional; conditions: Mycobacterium tuberculosis
[24] = inhibitors of non-replicating M. tuberculosis, dose response, luciferase, dry powder (AID 651619); type: functional; conditions: Mycobacterium tuberculosis
[25] = target: Oxysterols receptor LXR-beta (Homo sapiens, UniProt P55055); type: functional, cell-based;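 note: agonist activity at LXR measured by a cell-based luminescence readout across a dose range, run as a counterscreen for daf-12 agonists; HEK293 cells with Gal4-LXR fusion and GAL4-driven luciferase reporter; potency for activation of Gal4-LXR reporter so compounds are agonists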
[26] = optical artefact potency, substrate without enzyme – biochemical, fluorescence intensity, triplicate, artefact control for kallikrein-7 zymogen activator project, dose response (AID 720493)
Kallikrein-7 = Kallikrein-7 (Homo sapiens, UniProt P49862); experiment: Fluorescence Intensity-based biochemical primary high throughput dose response assay to identify activators of kallikrein-7 (K7) zymogen.
Kallikrein-7, sequence (P49862 whole entry): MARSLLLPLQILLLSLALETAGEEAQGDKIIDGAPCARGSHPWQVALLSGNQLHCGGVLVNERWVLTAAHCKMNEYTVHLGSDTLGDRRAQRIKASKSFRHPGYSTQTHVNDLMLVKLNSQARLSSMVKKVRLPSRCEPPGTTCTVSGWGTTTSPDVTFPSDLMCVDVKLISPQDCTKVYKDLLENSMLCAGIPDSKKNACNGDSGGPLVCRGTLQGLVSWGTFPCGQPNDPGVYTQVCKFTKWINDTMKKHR

T1 sequence (Q38C91 whole entry): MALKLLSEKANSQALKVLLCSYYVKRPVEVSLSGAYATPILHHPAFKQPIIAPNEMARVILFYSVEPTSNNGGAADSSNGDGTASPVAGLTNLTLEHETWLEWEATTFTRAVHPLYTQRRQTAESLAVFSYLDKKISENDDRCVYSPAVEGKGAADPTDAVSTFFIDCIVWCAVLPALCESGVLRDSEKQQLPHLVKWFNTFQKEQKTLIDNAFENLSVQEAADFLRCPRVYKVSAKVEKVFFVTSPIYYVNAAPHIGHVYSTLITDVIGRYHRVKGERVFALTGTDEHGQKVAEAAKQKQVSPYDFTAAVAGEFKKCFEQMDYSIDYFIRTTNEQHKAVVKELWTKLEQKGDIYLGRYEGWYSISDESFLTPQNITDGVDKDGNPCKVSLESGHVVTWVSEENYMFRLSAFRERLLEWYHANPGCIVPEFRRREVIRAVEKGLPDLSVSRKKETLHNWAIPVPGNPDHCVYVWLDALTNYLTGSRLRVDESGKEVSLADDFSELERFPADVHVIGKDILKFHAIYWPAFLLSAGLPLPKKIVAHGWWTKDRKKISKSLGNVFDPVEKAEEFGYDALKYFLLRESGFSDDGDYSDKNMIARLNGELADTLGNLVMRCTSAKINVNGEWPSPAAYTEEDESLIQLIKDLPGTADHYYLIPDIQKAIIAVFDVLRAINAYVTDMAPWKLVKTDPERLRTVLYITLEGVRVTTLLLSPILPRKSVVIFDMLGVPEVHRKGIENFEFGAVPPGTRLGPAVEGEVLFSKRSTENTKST
Kappa-type opioid receptor, sequence (P41145 whole entry): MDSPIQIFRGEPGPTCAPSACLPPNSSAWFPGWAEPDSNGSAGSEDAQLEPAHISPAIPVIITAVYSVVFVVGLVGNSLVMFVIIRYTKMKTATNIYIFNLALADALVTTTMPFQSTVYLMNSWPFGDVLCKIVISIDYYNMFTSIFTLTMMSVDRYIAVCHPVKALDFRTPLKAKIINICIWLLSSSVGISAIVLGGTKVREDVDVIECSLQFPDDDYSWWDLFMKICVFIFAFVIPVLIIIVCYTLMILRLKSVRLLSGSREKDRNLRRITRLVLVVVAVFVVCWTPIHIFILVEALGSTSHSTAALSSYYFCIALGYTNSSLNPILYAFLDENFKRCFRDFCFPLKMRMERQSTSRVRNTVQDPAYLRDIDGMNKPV
Sphingosine 1-phosphate receptor 1, sequence (P21453 whole entry): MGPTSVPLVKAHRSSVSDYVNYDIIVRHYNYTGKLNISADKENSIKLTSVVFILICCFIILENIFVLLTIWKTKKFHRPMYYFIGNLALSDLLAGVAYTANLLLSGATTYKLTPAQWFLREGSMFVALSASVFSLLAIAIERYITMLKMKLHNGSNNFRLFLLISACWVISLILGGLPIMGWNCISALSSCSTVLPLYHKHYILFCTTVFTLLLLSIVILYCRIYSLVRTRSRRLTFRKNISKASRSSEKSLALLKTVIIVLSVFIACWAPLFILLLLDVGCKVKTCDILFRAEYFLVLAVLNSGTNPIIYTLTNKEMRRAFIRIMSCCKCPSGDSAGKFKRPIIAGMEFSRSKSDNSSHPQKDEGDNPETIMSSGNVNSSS
C-X-C chemokine receptor type 4, sequence (P61073 whole entry): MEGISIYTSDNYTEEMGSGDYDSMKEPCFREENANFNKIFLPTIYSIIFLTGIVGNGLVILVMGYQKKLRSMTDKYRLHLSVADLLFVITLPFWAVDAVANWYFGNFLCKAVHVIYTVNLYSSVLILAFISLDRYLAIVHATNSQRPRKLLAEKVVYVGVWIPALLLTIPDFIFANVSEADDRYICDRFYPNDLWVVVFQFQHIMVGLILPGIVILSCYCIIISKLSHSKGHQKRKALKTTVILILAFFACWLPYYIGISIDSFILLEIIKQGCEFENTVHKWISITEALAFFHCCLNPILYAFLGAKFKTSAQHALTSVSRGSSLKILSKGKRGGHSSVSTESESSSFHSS
Oxysterols receptor LXR-beta, sequence (P55055 whole entry, the tested form may be a part): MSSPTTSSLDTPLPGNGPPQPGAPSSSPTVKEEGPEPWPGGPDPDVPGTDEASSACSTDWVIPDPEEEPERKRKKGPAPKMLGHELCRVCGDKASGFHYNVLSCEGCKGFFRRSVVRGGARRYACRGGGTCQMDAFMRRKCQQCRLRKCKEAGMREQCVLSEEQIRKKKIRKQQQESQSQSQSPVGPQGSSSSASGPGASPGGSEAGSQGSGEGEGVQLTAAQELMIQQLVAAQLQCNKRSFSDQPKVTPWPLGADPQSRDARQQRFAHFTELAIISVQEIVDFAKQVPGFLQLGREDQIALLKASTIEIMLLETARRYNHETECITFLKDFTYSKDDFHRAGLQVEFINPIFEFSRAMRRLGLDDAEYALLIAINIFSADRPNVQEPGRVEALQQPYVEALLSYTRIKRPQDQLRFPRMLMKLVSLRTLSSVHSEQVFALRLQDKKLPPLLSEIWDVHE
Delta-type opioid receptor, sequence (P41143 whole entry): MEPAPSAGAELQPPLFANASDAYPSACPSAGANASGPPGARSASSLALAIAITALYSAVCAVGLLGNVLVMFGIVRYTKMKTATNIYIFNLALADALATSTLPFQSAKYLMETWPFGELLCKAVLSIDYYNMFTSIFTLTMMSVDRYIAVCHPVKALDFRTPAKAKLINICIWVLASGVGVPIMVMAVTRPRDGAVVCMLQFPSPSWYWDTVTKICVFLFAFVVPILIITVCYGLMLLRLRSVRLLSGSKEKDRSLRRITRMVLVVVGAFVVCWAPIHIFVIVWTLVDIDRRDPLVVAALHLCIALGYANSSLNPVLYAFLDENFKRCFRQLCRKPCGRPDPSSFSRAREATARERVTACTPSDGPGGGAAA
Paired box protein Pax-8, sequence (Q06710 whole entry): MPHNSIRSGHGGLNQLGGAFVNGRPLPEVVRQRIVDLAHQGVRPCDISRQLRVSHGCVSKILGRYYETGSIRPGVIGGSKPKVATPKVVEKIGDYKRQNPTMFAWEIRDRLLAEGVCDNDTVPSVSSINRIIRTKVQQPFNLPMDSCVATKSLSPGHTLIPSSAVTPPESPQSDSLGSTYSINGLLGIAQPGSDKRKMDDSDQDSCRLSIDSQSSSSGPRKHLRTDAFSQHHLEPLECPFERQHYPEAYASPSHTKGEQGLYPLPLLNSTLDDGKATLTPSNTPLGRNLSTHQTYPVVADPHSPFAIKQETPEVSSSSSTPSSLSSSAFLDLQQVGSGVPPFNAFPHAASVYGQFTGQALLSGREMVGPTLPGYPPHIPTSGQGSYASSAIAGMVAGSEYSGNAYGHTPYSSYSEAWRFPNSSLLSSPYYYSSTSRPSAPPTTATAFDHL
Mu-type opioid receptor, sequence (P35372 whole entry): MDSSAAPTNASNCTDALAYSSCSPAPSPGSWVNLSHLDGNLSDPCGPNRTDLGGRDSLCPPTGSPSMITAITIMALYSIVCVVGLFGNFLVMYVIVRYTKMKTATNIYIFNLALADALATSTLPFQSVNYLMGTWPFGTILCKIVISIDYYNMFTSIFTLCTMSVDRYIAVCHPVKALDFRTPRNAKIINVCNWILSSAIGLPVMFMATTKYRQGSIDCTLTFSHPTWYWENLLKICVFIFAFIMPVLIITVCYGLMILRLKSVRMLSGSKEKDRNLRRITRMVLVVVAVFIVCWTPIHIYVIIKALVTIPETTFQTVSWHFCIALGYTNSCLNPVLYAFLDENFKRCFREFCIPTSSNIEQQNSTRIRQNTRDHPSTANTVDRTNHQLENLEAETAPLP

Nc1[nH]cnc2c(C3OC(CO)C(O)C3O)cnc1-2 (centres undefined)
AC50 [1]: 19.5 µM (active)
AC50 (Paired box protein Pax-8): < 0.26 µM (active)
AC50 [2]: 0.539 µM (active)
AC50 [3]: 0.407 µM (active)
AC50 [4]: 0.422 µM (active)
AC50 [5]: < 0.05 µM (active)
AC50 [6]: 0.832 µM (active)

Cn1cc(S(=O)(=O)N2CCOCC2)cc1C(=O)NCc1ccc(Cl)cc1
IC50 [7]: 29.8 µM (inactive)
IC50 [8]: 83.3 µM (inactive)
IC50 [9]: 11.2 µM (inactive)

C[C@H](CO)N1C[C@H](C)[C@H](CN(C)Cc2ccc(C(F)(F)F)cc2)OCCCC[C@H](C)Oc2ccc(NC(=O)CCCN(C)C)cc2C1=O
AC50 [10]: 15.7 µM (active)
AC50 [11]: 10.3 µM (active)
AC50 [12]: 17.9 µM (active)

O=C(CN1CCOCC1)N1CCCCN2[C@@H](CO)[C@H](c3ccc(-c4ccccc4)cc3)[C@@H]2C1
AC50 [13]: 2.39 µM (active)

C=CCNC1=C(NS(=O)(=O)c2ccc(Br)cc2)C(=O)c2ccccc2C1=O
AC50 [14]: > 70 µM (inactive)
AC50 [15]: > 70 µM (inactive)

COc1ccccc1C1CCN(Cc2ccc3c(c2)CCC(C)(C)O3)CC1
IC50 [16]: > 50 µM (inactive)
IC50 [17]: 4.66 µM (active)
IC50 (Mu-type opioid receptor): 7.4 µM (active)
IC50 [18]: > 50 µM (inactive)

COc1ccc(CN2C3CCCC2CC(NC(=O)c2cc(OC)c(OC)c(OC)c2)C3)cc1 (centres undefined)
IC50 [19]: > 79 µM (inactive)
IC50 [20]: 57.5 µM (inactive)

CCn1nnnc1NCc1ccc(C(C)C)cc1
AC50 [21]: 144 µM (active)
AC50 [22]: > 70 µM (inactive)

Fc1ccc(-c2nnc(SCc3cn(Cc4ccccc4)nn3)o2)cc1
IC90 [23]: 1 µM (active)
IC90 [24]: 1 µM (active)

Cc1ccsc1/C=N/NC(=O)c1sccc1C
EC50 [25]: > 67.5 µM (inactive)

COc1ccc(-c2coc3cc(O)c(OC)cc3c2=O)cc1 [CASTANIN]
EC50 [26]: > 7.73 µM (active)
EC50 (Kallikrein-7): 9 µM (active)
